Literature values in patent US20240189327A1, “SYNERGISTIC CANNABINOID ESTERS, THEIR SALTS AND USES THEREOF” (LONDON PHARMACEUTICALS AND RESEARCH CORPORATION, priority 2021, published 2024).

Tests used:
[1] = in vivo
[2] = pH 7.4
[3] = tested on: intraocular pressure; settings: normotensive rabbit

Compound | time to maximum plasma level [1] [h] | increase of aqueous solubility over the parent endocannabinoids [2] | effect on intraocular pressure [3]
C=C(C)[C@@H]1CCC(C)=C[C@H]1c1c(O)cc(CCCCC)cc1O [CBD, cannabidiol] | 4 to 6 | – | –
N[C@H]1C(O)O[C@H](CO)[C@@H](O)[C@@H]1O (stereo partly shown) [glucosamine] | 0.833 | – | –
CCCCC/C=C\C/C=C\C/C=C\C/C=C\CCCC(=O)NCCOP(=O)(O)O [phosphate ester pro-drug of anandamide] | – | > 16 500 fold | reduced the intraocular pressure
